The record followed here is ChEMBL document CHEMBL3272262, “Basic derivatives of 6,7-dihydroindolo(1,7-ab)(1) benzazepine and 6H-indolo(7,1-cd)(1,5) benzoxazepine as potential antidepressant agents” (J Med Chem, 1976).

Converted amounts (≈) assume the structure as drawn.

The test system of data set [1] is Mus musculus. As to the kind of experiment: Antidepressant activity in po dosed Swiss mouse assessed as reversal of reserpine-induced ptosis administered 1 hr prior to reserpine challenge. It is filed as functional.
Data set [2] concerns Mus musculus. Briefly: Antidepressant activity in po dosed Swiss mouse assessed as reversal of reserpine-induced hypothermia measured over 5 hrs. It is filed as functional.
The nature of data set [3]: Acute toxicity in po dosed Swiss mouse assessed as mortality after 7 days. As to conditions: in vivo. It is filed as organism-based.
Data set [4] has as its system Mus musculus. Briefly: Toxicity in po dosed Swiss mouse assessed as behavioral changes. As to conditions: in vivo. It is filed as organism-based.
The test system of data set [5] is Ileum. As to the kind of experiment: Antispasmodic activity in guinea pig ileum assessed as inhibition of acetylcholine-induced spasm. It is filed as functional. The following applies: Cavia porcellus, read-out: ED50 (the source's name).
Data set [6] relates to Ileum. Briefly: Antispasmodic activity in guinea pig ileum assessed as inhibition of histamine-induced spasm. As to conditions: Cavia porcellus, read-out: ED50 (the source's name). It is filed as functional.

Usually LD50 stands for the dose at which mortality reaches 50%. In the case of `Cc1c(CCN(C)C)n2c3c(cccc13)COc1ccccc1-2.Cl`, the figures for the MED50 with Mus musculus [1] and in the data set on Mus musculus [2] were 10 mg/kg and over 50 mg/kg, respectively. Further, the LD50 at 168 h in data set [3] was found to be 310 mg/kg. In addition, the Activity entry with Mus musculus [4] is “Non-toxic”.

In the case of `CN(C)CCc1cc2cccc3c2n1-c1ccccc1OC3.Cl`, the MED50 amounted to 3 mg/kg in the data set with Mus musculus [1] and 50 mg/kg with Mus musculus [2]. The EC50 in the data set on Ileum [5] came out at 10 µg/mL; in the data set on Ileum [6] it was 1 µg/mL. The LD50 at 168 h in data set [3] amounted to 195 mg/kg. In addition, the Activity result in the data set with Mus musculus [4] was “Non-toxic”.

For `CN(C)CCc1cc2cccc3c2n1-c1ccccc1CC3`, the results for the MED50 with Mus musculus [1] and in the data set on Mus musculus [2] were 2 mg/kg and 5 mg/kg, respectively. The EC50 with Ileum [5] came out at 1 µg/mL (≈ 3.44 µM); with Ileum [6], 0.2 µg/mL (≈ 0.689 µM). Moreover, the LD50 at 168 h in data set [3] was 420 mg/kg. In the data set with Mus musculus [4], the Activity entry is given as “Non-toxic”.

As to `Cl.c1ccc(CN(CCc2cc3cccc4c3n2-c2ccccc2CC4)Cc2ccccc2)cc1`, the MED50 with Mus musculus [1] was 50 mg/kg; in the data set with Mus musculus [2], over 50 mg/kg. Moreover, the EC50 in the data set on Ileum [5] and in the data set on Ileum [6] was over 10 µg/mL each time. For the same compound, the median lethal dose (LD50) at 168 h in data set [3] was determined as 1400 mg/kg. Moreover, the Activity entry in the data set on Mus musculus [4] is “Non-toxic”.

Regarding `CNCCc1cc2cccc3c2n1-c1ccccc1CC3.Cl`, the MED50 turned out to be 1 mg/kg in the data set with Mus musculus [1] and 2.5 mg/kg in the data set with Mus musculus [2]. Also, the figures for the EC50 in the data set on Ileum [5] and in the data set with Ileum [6] were 4 µg/mL and 0.6 µg/mL, respectively. For the same compound, the LD50 at 168 h in data set [3] is 410 mg/kg. The Activity result with Mus musculus [4] was “Non-toxic”.

On to `Cc1c(CCN(C)C)n2c3c(cccc13)CCc1ccccc1-2`, for which the MED50 is 7.5 mg/kg in the data set on Mus musculus [1] and over 50 mg/kg in the data set on Mus musculus [2]. Further, the EC50 in the data set on Ileum [5] and with Ileum [6] was over 10 µg/mL throughout. Besides, the LD50 at 168 h in data set [3] was 195 mg/kg. In addition, in the data set with Mus musculus [4], the Activity entry is reported as “Non-toxic”.

For the compound `Cc1c(CCN(C)Cc2ccccc2)n2c3c(cccc13)CCc1ccccc1-2.Cl`, the MED50 with Mus musculus [1] and with Mus musculus [2] was over 50 mg/kg each time. Also, the LD50 at 168 h in data set [3] is over 4000 mg/kg. Further, in the data set on Mus musculus [4], the Activity entry is “Non-toxic”.

On to `CNCCc1c(C)c2cccc3c2n1-c1ccccc1CC3.Cl`, for which the MED50 is 2.5 mg/kg with Mus musculus [1] and over 50 mg/kg in the data set with Mus musculus [2]. For the same compound, the EC50 stood at 6 µg/mL in the data set on Ileum [5] and 5 µg/mL with Ileum [6]. For the same compound, the LD50 at 168 h in data set [3] was 390 mg/kg. Besides, the Activity result in the data set on Mus musculus [4] is on record as “Non-toxic”.

On to `CN(C)Cc1cc2cccc3c2n1-c1ccccc1CC3`, for which the MED50 in the data set on Mus musculus [1] and with Mus musculus [2] was over 50 mg/kg in each case. Also, the LD50 at 168 h in data set [3] was determined as 210 mg/kg. For the same compound, in the data set with Mus musculus [4], the Activity result was “Non-toxic”.

Turning to `CN(C)CCc1c(-c2ccccc2)c2cccc3c2n1-c1ccccc1CC3`, the MED50 in the data set with Mus musculus [1] and in the data set with Mus musculus [2] was over 50 mg/kg throughout. Besides, the LD50 at 168 h in data set [3] turned out to be 1900 mg/kg. Besides, the Activity result with Mus musculus [4] is listed as “Non-toxic”.

On to `CN(C)Cc1cn2c3c(cccc13)CCc1ccccc1-2.Cl`, for which the MED50 with Mus musculus [1] and in the data set on Mus musculus [2] was over 50 mg/kg each time. Moreover, in data set [3], the LD50 at 168 h was 170 mg/kg. Also, the Activity entry with Mus musculus [4] is on record as “Non-toxic”.

`Cc1c(CN(C)C)c2cccc3c2n1-c1ccccc1CC3`: the MED50 with Mus musculus [1] and with Mus musculus [2] was over 50 mg/kg throughout. Besides, the LD50 at 168 h in data set [3] came out at 450 mg/kg. Also, in the data set on Mus musculus [4], the Activity entry is listed as “Non-toxic”.

In the case of `CN(C)Cc1c(-c2ccccc2)n2c3c(cccc13)CCc1ccccc1-2`, the MED50 with Mus musculus [1] and in the data set on Mus musculus [2] was over 50 mg/kg each time. Moreover, the LD50 at 168 h in data set [3] was 1600 mg/kg. The Activity result in the data set on Mus musculus [4] was “Non-toxic”.

As for `CN(CCc1cc2cccc3c2n1-c1ccccc1CC3)Cc1ccccc1.Cl` [AZIPRAMINE HYDROCHLORIDE], the figures for the MED50 in the data set on Mus musculus [1] and in the data set on Mus musculus [2] were 3.5 mg/kg and 5 mg/kg, respectively. Also, the EC50 in the data set on Ileum [5] and in the data set on Ileum [6] was over 5 µg/mL throughout. Besides, the LD50 at 168 h in data set [3] is over 4000 mg/kg. Besides, in the data set on Mus musculus [4], the Activity entry was “Non-toxic”.

Take `CN(C)CCCN1c2ccccc2CCc2ccccc21` [IMIPRAMINE]: the MED50 in the data set on Mus musculus [1] and in the data set on Mus musculus [2] was 2.5 mg/kg throughout. The EC50 amounted to 0.3 µg/mL (≈ 1.07 µM) in the data set with Ileum [5] and 0.006 µg/mL (≈ 0.0214 µM) with Ileum [6].
